Data on four molecules can be found in article PMC12748766, “Structural basis for human chondroitin sulfate chain polymerization” (Nature Communications, 2025).

The target in one test is T1, CHSY1-CHPF2 complex (Homo sapiens, UniProt Q86X52).
T1 construct: secreted luminal part of both chains (TM helix removed), HEK Freestyle 293-F; N-terminal SUMO, His6 cut with 3C; C-terminal Avi (CHSY1), 3C site and twin-Strep (CHPF2); heterodimer, expected 169 kDa; with Chondroitin sulfate glucuronyltransferase
T1 sequence (Q86X52 68-802): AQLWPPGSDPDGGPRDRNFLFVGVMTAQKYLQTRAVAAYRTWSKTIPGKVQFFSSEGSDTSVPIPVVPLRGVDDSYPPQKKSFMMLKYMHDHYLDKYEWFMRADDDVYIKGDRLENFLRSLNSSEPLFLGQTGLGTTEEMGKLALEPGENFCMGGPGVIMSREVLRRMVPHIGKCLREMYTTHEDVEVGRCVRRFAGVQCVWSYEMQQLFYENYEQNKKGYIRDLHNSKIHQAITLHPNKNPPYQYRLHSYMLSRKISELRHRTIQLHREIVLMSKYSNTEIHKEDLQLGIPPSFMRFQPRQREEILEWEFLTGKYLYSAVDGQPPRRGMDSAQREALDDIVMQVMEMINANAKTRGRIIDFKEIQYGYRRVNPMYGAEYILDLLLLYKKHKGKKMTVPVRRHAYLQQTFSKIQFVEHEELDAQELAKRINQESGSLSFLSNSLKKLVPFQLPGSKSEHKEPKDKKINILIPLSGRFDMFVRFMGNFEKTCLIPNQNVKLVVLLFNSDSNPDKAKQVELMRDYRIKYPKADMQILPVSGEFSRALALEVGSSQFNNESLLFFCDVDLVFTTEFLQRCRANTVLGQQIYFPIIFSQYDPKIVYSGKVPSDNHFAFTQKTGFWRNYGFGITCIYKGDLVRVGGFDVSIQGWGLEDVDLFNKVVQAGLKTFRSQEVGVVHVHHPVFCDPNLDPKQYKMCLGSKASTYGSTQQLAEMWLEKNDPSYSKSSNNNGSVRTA
T1 sequence (Q9P2E5 57-772 partner): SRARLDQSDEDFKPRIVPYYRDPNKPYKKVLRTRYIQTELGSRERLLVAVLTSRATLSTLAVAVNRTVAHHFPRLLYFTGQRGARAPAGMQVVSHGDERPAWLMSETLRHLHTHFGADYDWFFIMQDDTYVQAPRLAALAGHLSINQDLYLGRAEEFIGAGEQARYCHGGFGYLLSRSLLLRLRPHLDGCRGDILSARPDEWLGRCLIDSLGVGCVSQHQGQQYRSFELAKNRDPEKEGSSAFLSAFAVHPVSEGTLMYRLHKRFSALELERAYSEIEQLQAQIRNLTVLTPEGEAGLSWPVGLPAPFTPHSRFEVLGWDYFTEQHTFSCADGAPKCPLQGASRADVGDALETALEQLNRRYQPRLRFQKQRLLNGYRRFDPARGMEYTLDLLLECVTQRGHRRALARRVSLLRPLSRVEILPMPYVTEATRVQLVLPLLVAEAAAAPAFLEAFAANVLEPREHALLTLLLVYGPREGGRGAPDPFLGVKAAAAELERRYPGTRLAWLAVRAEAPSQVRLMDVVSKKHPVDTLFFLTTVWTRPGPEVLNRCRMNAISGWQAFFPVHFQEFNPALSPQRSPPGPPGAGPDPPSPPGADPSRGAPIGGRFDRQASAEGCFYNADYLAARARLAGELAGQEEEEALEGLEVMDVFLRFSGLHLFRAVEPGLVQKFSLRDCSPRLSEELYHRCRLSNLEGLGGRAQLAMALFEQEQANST
The experiment in a line: FACE gel glycosylation assay. The format is biochemical. As to conditions: acceptor TAMRA-labelled Penta-CSF1 glycopeptide, Mn2+ and Mg2+, pH 6.5, 30 C.

Another test has as its target T2, CHSY3-CHPF2 complex (Homo sapiens, UniProt Q70JA7).
T2 construct: secreted luminal part of both chains (TM helix removed), HEK Freestyle 293-F; N-terminal SUMO, His6 cut with 3C; C-terminal Avi (CHSY3), 3C site and twin-Strep (CHPF2); heterodimer, expected 167 kDa; with Chondroitin sulfate glucuronyltransferase
T2 sequence (Q70JA7 157-882): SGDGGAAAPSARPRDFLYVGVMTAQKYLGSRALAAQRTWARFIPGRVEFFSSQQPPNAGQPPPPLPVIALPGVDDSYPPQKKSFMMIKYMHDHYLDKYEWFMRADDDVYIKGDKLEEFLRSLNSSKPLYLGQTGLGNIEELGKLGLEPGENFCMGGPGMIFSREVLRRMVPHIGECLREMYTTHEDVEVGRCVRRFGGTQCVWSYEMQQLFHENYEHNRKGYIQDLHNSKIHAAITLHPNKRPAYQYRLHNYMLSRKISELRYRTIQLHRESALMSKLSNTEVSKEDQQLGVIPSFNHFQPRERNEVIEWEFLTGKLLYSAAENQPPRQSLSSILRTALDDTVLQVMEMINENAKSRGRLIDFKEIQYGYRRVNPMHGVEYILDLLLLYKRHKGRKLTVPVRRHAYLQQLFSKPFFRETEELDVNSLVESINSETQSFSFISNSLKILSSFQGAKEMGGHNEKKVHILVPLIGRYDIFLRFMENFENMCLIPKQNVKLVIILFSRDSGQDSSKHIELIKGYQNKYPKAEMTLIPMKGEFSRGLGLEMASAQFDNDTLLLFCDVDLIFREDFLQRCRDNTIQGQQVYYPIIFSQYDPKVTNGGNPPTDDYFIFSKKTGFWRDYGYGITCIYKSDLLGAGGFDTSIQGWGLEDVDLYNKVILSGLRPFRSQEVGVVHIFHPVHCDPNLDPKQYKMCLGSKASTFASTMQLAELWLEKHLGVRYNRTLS
T2 sequence (Q9P2E5 57-772 partner): T1 sequence (Q9P2E5 57-772 partner)
Briefly: FACE gel glycosylation assay. The format is biochemical. Particulars: acceptor TAMRA-labelled Penta-CSF1 glycopeptide, Mn2+ and Mg2+, pH 6.5, 30 C.

Test [1] has as its target T3, CHSY3-CHPF complex (Homo sapiens, UniProt Q70JA7).
T3 construct: secreted luminal part of both chains (TM helix removed), HEK Freestyle 293-F; N-terminal RPTP sigma signal, SUMO, His6 cut with 3C; C-terminal Avi (CHSY3), 3C site and twin-Strep (CHPF); heterodimer, expected 165 kDa; with Chondroitin sulfate synthase 2
T3 sequence (Q70JA7 157-882): T2 sequence (Q70JA7 157-882)
T3 sequence (Q8IZ52 81-775 partner): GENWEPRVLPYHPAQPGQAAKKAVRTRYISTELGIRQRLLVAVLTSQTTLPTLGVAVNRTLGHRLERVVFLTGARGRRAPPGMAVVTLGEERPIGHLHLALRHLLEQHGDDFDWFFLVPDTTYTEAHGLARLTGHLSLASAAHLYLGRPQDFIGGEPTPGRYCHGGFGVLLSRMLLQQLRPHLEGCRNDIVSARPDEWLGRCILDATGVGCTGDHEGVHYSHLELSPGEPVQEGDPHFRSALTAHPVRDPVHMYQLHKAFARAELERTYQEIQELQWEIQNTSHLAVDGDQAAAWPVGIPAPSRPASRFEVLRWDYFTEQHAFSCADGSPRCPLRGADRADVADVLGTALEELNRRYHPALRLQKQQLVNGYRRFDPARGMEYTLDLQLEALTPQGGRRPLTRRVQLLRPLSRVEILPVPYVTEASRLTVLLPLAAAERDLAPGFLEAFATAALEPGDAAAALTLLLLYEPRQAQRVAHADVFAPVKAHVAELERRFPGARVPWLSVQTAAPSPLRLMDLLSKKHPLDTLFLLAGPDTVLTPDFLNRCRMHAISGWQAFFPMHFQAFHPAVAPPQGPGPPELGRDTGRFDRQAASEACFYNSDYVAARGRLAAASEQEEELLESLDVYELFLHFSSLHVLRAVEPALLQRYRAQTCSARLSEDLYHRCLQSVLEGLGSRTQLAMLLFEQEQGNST
The experiment in a line: FACE gel glycosylation assay. As to conditions: Mn2+ and Mg2+, pH 6.5, 30 C. The format is biochemical.

A further test has as its target T4, CHSY1-CHPF complex (Homo sapiens, UniProt Q86X52).
T4 construct: secreted luminal part of both chains (TM helix removed), HEK Freestyle 293-F; N-terminal SUMO, His6 cut with 3C; C-terminal Avi (CHSY1), 3C site and twin-Strep (CHPF); heterodimer, expected 167 kDa; with Chondroitin sulfate synthase 2
T4 sequence (Q86X52 68-802): T1 sequence (Q86X52 68-802)
T4 sequence (Q8IZ52 81-775 partner): T3 sequence (Q8IZ52 81-775 partner)
Briefly: FACE gel glycosylation assay. The format is biochemical. As to conditions: acceptor TAMRA-labelled Penta-CSF1 glycopeptide, Mn2+ and Mg2+, pH 6.5, 30 C.

The target in test [2] is T3, CHSY3-CHPF complex. Briefly: cryo-EM structure, […] A. The format is binding. As to conditions: 10 mM UDP, Mn2+, pH 6.5; bound in N-terminal GT31 (GlcA-T) active site of CHSY3.
Test [3] addresses T5, Chondroitin Sulfate Synthase-1 (CHSY1), secreted N-terminally truncated construct aa68-aa802 (human, UniProt Q86X52 68-802).
T5 construct: CHSY1, human, UniProt Q86X52, residues 68-802 (membrane-spanning helix removed); Construct in pHR-CMV-TetO2 with an N-terminal chicken RPTP sigma signal peptide, SUMO, 6x His and a 3C site; no cleavage site before the C-terminal Avi tag; source: Freestyle 293-F cells, co-transfected, secreted; purified from the supernatant (HisTrap, 3C protease, second HisTrap); not shown: SUMO, N-terminal, …
T5 sequence (looked up): T1 sequence (Q86X52 68-802)
The experiment in a line: mass photometry; Refeyn OneMP; purified complexes diluted in 20 mM MES pH 6.5, 150 mM NaCl to around 25 nM. Particulars: both partners purified.

The target of test [4] is T6, Chondroitin Sulfate Synthase-3 (CHSY3), secreted N-terminally truncated construct aa157-aa882 (human, UniProt Q70JA7 157-882).
T6 construct: CHSY3, human, UniProt Q70JA7, residues 157-882 (membrane-spanning helix removed); Construct in pHR-CMV-TetO2 with an N-terminal chicken RPTP sigma signal peptide, SUMO, 6x His and a 3C site; no cleavage site before the C-terminal Avi tag; source: Freestyle 293-F cells, co-transfected, secreted; purified from the supernatant (HisTrap, 3C protease, second HisTrap); not shown: SUMO, N-terminal, …
T6 sequence (looked up): T2 sequence (Q70JA7 157-882)
The test is described as above. Particulars: both partners purified.

Take `CC(=O)N[C@H]1[C@@H](OP(=O)(O)OP(=O)(O)OC[C@H]2O[C@@H](n3ccc(=O)[nH]c3=O)[C@H](O)[C@@H]2O)O[C@H](CO)[C@H](O)[C@@H]1O` [UDP-GalNAc]: the “FACE gel glycosylation assay” value at CHSY1-CHPF2 complex (co-donor UDP-GlcA) is “All four purified CS polymerase complexes were able to elongate the CS chain”; at CHSY3-CHPF2 complex (co-donor UDP-GlcA), “All four purified CS polymerase complexes were able to elongate the CS chain”; on CHSY3-CHPF complex [1] (acceptor TAMRA-labelled Hexa-CSF1 glycopeptide, co-donor UDP-GlcA, C-terminal GT7 site of CHSY3) it was “wild-type CHSY3-CHPF complex efficiently elongated the Penta-CSF1 and Hexa-CSF1 substrates into high molecular weight chains”; on CHSY1-CHPF complex (co-donor UDP-GlcA), “All four purified CS polymerase complexes were able to elongate the CS chain”.

Regarding `O=C(O)[C@H]1O[C@H](OP(=O)(O)OP(=O)(O)OC[C@H]2O[C@@H](n3ccc(=O)[nH]c3=O)[C@H](O)[C@@H]2O)[C@H](O)[C@@H](O)[C@@H]1O` [UDP-GlcA], the “FACE gel glycosylation assay” value at CHSY1-CHPF2 complex (co-donor UDP-GalNAc) is “All four purified CS polymerase complexes were able to elongate the CS chain”; on CHSY3-CHPF2 complex (co-donor UDP-GalNAc), “All four purified CS polymerase complexes were able to elongate the CS chain”; on CHSY3-CHPF complex [1] (acceptor TAMRA-labelled Penta-CSF1 glycopeptide, co-donor UDP-GalNAc, N-terminal GT31 site of CHSY3) it was “wild-type CHSY3-CHPF complex efficiently elongated the Penta-CSF1 and Hexa-CSF1 substrates into high molecular weight chains”; on CHSY1-CHPF complex (co-donor UDP-GalNAc) it was “All four purified CS polymerase complexes were able to elongate the CS chain”.

`O=c1ccn([C@@H]2O[C@H](COP(=O)(O)OP(=O)(O)O)[C@@H](O)[C@H]2O)c(=O)[nH]1` [UDP]: on CHSY3-CHPF complex [2], the “cryo-EM structure, 3.0 A” value is given as “We identified one UDP molecule bound in the CHSY3 GlcA-T active site”.

B1: Chondroitin Polymerization Factor-2 (CHPF2), secreted N-terminally truncated construct aa57-aa772 (domain or fragment, human, UniProt Q9P2E5 57-772, looked up)
chain: T1 sequence (Q9P2E5 57-772 partner)
notes: CHPF2, human, UniProt Q9P2E5, residues 57-772 (membrane-spanning helix removed); Construct in pHR-CMV-TetO2 with an N-terminal chicken RPTP sigma signal peptide, SUMO, 6x His and a 3C site; a second 3C site stands before the C-terminal twin streptavidin tag; also called CSGlcA-T; source: Freestyle 293-F cells, co-transfected, secreted; purified from the supernatant (HisTrap, 3C protease, second …)
Turning to B1, the binding result in test [3] and in test [4] was “binds” each time.
